Source: patent US20220041559A1, “BENZO-AND PYRIDO-PYRAZOLES AS PROTEIN KINASE INHIBITORS” (ROTTAPHARM BIOTECH S.R.L., priority 2019, published 2022)

Assays:
VEGFR = molecular target: T1, VEGFR (Homo sapiens, UniProt P35968); experiment: Inhibition of VEGF-induced VEGFR (Y1175)-phosphorylation (cell-based assay, HUVEC-C); conditions: VEGF 50 ng/ml, Western blot
T1 construct: endogenous in cells; host or cells: HUVEC-C
Experimental: HUVEC-C cells (Human Umbilical Vein Endothelial Cells from ATCC) were plated at 6×10^4 cells/well in 24 w microplates and grown adherent in medium F12K+0.1 mg/ml Heparin+0.05 mg/ml ECGS+10% FBS at 37° C. with 5% CO2. After 24 h, medium was removed and starvation was induced overnight in medium F12K+0.1 mg/ml Heparin+0.5% FBS (medium starvation). At the end of incubation, treatment of cells was performed by medium replacement and by adding fresh medium containing or not diluent or test compounds (DMSO 0.1% final concentration) diluted in medium starvation. After 1 hour, VEGF stimuli (diluted in medium starvation, 50 ng/ml final concentration) was added to each sample, with the exception of basal sample; plate was then incubated for 5 min at 37° C. with 5% CO2. At the end of the incubation, the medium was removed and cellular lysates were obtained by adding M-PER lysis buffer containing 1× Protease/Phosphatase inhibitors cocktail. Then, lysates were transferred into Eppendorf tubes, sonicated and stored at −80° C.
Lysates were analyzed by Western blot for VEGFR phosphorylation (Tyrosine 1175) and total receptor amount determination. Densitometric analysis of sample lanes were performed by ImageQuant TL software (GE Healthcare Life Sciences). […]

EGFR = EGFR (Homo sapiens, UniProt P00533); experiment: ADP-Glo in vitro kinase assay, EGFR kinase inhibition; format: biochemical; design: purchased SignalChem
Chain of EGFR (P00533 25-1210): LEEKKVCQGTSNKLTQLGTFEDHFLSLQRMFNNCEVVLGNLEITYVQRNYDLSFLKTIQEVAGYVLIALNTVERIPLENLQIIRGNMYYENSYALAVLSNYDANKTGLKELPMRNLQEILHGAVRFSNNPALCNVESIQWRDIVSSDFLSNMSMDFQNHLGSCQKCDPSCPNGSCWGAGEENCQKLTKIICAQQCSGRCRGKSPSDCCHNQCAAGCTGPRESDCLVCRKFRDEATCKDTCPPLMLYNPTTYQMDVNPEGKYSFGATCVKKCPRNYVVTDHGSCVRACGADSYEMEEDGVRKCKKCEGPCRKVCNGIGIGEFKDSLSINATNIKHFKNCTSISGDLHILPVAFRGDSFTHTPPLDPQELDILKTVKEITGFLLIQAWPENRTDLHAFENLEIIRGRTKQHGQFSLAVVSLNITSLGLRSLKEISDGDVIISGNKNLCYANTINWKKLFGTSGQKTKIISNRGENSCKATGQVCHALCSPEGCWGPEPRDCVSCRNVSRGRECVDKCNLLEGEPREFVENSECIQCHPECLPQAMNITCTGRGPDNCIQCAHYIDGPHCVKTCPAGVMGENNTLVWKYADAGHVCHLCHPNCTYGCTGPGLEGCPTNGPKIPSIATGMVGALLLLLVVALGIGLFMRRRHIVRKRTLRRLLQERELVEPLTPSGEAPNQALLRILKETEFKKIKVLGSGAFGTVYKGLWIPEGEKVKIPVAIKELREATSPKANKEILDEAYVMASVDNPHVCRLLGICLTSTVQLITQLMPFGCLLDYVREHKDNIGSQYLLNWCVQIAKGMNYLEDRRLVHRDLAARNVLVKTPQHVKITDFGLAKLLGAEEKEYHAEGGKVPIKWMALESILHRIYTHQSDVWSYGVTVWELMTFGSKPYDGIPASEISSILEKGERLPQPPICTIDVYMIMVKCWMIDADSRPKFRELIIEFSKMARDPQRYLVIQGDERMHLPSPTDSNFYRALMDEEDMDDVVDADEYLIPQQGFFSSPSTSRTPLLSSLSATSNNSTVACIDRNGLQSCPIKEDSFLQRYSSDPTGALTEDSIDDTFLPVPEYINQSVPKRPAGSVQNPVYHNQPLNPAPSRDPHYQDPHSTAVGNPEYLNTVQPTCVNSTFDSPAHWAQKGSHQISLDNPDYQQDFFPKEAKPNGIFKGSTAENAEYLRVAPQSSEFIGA
Experimental: The ADP-Glo™ Kinase Assay (Promega), monitoring ADP produced in the kinase reaction, was performed in two steps. In the first one, after the kinase reaction, the ADP-Glo™ Reagent is added to terminate the kinase reaction and deplete the remaining ATP. In the second step, the Kinase Detection Reagent is added to simultaneously convert ADP to ATP (ATPn or newly synthesized ATP) and introduce luciferase and luciferin, allowing the ATPn to be measured (luciferase/luciferin reaction). The amount of light generated correlates with the amount of ATPn (indirectly with the ADP produced in kinase reaction).
Kinase reaction was performed in 10 μl in a white 384-well plate, inhibitor solutions in DMSO/Kinase buffer (40 mM Tris-Cl, 20 mM MgCl2, 0.1 mg/ml BSA, 50 μM DTT, pH 7.5) and EGFR kinase in Kinase buffer (SignalChem, 2.5 ng/μl final concentration in assay) were pre-incubate 15 minutes at room temperature. At the kinase concentration selected a signal-to negative control ratio >10 was calculated, according to supplier indication. In samples representing the Total enzymatic activity (no inhibitor) or the negative control (no enzyme), inhibitor solution was replaced by diluents (1 DMSO in kinase buffer, final concentration) or ultra-pure water, respectively.
The range of inhibitor concentrations was from 10^−11 M up to 3×10^−6 M (final concentration in assay) and each experimental point was performed in duplicate.
To start the reaction, a substrate/ATP mix (ATP 10 μM final concentration, near to ATP Km value) was added to each sample and after 30 minutes incubation at room temperature, ADP-Glo™ Reagent and Kinase Detection Reagent, incubated in sequence according to the respective incubation time and supplier indication, allowed to stop and develop the kinase reaction. The luminescence was measured with a plate-reading luminometer (Envision 2104 Multilabel reader, PerkinElmer). The percentage of inhibition was calculated towards the Total enzymatic activity and the corresponding curves were analyzed by non linear curve fitting (GraphPad software, version 7 for Windows), allowing to calculate the IC50 value±standard error of the estimate.

T1 sequence (P35968 20-1356): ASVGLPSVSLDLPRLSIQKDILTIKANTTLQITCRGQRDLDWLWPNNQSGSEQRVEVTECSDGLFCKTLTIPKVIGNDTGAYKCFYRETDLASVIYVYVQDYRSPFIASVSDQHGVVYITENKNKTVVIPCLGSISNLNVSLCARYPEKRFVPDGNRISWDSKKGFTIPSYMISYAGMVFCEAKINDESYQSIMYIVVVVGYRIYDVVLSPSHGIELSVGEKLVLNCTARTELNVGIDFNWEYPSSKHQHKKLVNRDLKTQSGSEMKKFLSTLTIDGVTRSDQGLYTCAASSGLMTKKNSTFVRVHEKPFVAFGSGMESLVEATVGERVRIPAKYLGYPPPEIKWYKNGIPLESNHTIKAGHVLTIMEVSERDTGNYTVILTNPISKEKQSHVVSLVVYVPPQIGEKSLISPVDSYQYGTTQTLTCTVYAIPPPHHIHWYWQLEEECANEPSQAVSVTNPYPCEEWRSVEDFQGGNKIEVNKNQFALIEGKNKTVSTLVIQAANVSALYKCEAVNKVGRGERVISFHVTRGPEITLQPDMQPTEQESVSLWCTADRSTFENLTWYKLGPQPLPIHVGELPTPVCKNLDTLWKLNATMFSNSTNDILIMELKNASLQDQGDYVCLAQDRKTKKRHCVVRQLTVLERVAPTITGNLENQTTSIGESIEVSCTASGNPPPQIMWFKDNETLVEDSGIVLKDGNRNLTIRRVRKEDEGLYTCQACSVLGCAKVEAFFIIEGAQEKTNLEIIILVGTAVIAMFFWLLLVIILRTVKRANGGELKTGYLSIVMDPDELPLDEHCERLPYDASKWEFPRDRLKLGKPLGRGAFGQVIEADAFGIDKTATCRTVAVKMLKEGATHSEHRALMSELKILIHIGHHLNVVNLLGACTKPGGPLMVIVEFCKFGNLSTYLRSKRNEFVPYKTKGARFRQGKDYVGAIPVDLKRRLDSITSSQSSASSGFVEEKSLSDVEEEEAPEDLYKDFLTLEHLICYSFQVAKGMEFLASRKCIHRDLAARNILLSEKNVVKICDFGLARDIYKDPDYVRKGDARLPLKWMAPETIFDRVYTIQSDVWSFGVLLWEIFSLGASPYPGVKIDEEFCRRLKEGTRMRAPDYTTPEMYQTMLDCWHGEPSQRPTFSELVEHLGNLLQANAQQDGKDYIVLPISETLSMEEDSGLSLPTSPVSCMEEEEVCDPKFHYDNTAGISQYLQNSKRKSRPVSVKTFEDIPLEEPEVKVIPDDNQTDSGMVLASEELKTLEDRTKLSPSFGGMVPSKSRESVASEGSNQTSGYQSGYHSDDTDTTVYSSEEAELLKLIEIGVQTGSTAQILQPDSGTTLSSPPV

For `CN1CCC(c2ccc(C(=O)Nc3n[nH]c4nc(Nc5ccccc5F)ccc34)cc2)CC1` [Compound 5, N-(6-((2-fluorophenyl)amino)-1H-pyrazolo[3,4-b]pyridin-3-yl)-4-(1-methylpiperidin-4-yl)benzamide], which “Concentration from which maximal inhibitory activity on VEGFR-phosphorylation is shown” value (VEGFR) is on record?
The value was at least 1 µM.

And the IC50 (EGFR; ATP 10 μM, 30 minutes at room temperature)?
The IC50 was 6 nM.

What about the “EGFR kinase inhibition, result in words” value (EGFR; text summary of Table 18) of the same compound?
The value was “more active”.
